Columns and labels:
[1] = system: orthotopic MycCaP prostate tumors; assay: Tumor volume by MRI in orthotopic MycCaP prostate model during iron chelation therapy; assay type: in vivo, FVB/N mice; conditions: 150 mg/kg, 5 days/week oral gavage; two weeks of gavage beginning one-week post-implantation at 100 mm^3; vs sham (H2O); n=10, p<0.05
Description: (§1) Chelation of iron(III) has been proposed as a cancer treatment that causes reductions in tumor growth, presumably by reducing bioavailability of iron(III) to the cancer cells. However, no studies have addressed the possibility that chelation modulates TAM infiltration contributing to these anti-tumor effects. In order to investigate anti-tumor effects of iron chelation, FeMRI is used, as described herein, to monitor tumor growth in two mouse models. The faster growing MycCaP model and the slower growing TRAMP-C2 model were studied and contrasted to evaluate the effect of dose duration. Immune-competent, syngeneic murine FVB/N and C57BL/6 hosts underwent orthotopic prostatic injections of 5×10^4 cells (MycCaP and TRAMP-C2, respectively), and thereafter received either sham (H2O) or DFP (150 mg/kg, 5 days/week) by oral gavage until average primary tumor burden exceeded 1 cm^3 (determined by MM) in the treated group. […] At long dose durations (12 weeks) there was no growth of TRAMP-C2 orthotopic tumors implanted in syngeneic hosts (FIG. 3A, n=10, *p<0.001). […] (FIG. 3D, n=10, *p<0.05). […] Further, the ability to monitor TAM dynamics serially using FeMRI represents a technique that has translational use, bypassing the necessity for using invasive biopsy to obtain similar measures of stromal response to therapy.

[2] = system: orthotopic TRAMP-C2 prostate tumors; assay: Tumor volume by MRI in orthotopic TRAMP-C2 prostate model during iron chelation therapy; assay type: in vivo, C57BL/6 mice; conditions: 150 mg/kg, 5 days/week oral gavage; long dose duration (12 weeks); syngeneic hosts; n=10, p<0.001
Description: as §1

[3] = system: high-iron(III)+ CD68+ TAMs in MycCaP tumors; assay: Whole slice histology (Prussian Blue iron(III), CD68) of TAM infiltration in MycCaP tumors; assay type: in vivo, FVB/N mice
Description: In order to further quantify these low- and high-[iron(III)] sub-populations, quantitative histology was used. […] In low-iron(III)^+ regions, prostate cancer cells were found sparsely studded with ferritin particles less than 1 μm^2 (at an approximate density of 1000 ferritin particles/field; no CD68^+ macrophages were observed (FIG. 2F, 2G n=18 fields, n=6 mice). In high-iron(III)^+ regions CD68^+ TAMs were found bearing dense hemosiderin deposits in groups of approximately 24 macrophages/TAM cluster (FIG. 2F, 2G, n=18 fields, n=6 mice). With these histological findings, it was possible to estimate the per-pixel TAM number in high-[iron(III)] MRI clusters at approximately 6 macrophages/pixel. To quantify the extent of infiltration of these TAM clusters, an image-processing algorithm was developed in-house with Matlab and ImageJ. […] Immune-competent, syngeneic murine FVB/N and C57BL/6 hosts underwent orthotopic prostatic injections of 5×10^4 cells (MycCaP and TRAMP-C2, respectively), and thereafter received either sham (H2O) or DFP (150 mg/kg, 5 days/week) by oral gavage until average primary tumor burden exceeded 1 cm^3 (determined by MM) in the treated group. […]

[4] = system: high-[iron(III)] TAM clusters in MycCaP tumors; assay: FeMRI measurement of high-[iron(III)] TAM clusters in MycCaP tumors; assay type: in vivo, FVB/N mice
Description: TAM clusters was measured by FeMRI at each week of treatment as a function of percent infiltration in MycCaP tumors. […] These low-[iron(III)] and high-[iron(III)] populations were mapped by thresholding the tumor Fe[(III)] distribution in these ranges on the FeMRI. The low-[iron(III)] map consisted of dense pixel clusters distributed throughout the tumor, while the high-[iron(III)] map contained sparse clusters with average cluster size of approximately 4 MRI pixel^2≈0.05 mm^2 primarily at the outer tumor margins (n=10 mice). To quantify the extent of infiltration of these TAM clusters, an image-processing algorithm was developed in-house with Matlab and ImageJ. This tool is based on concentric rake sampling that identifies […] CD68^+ or high-[iron(III)] colonies and maps them as a function of % infiltration into the tumor (inset FIG. 2J, […] outer edge, 100% tumor center) for arbitrarily sized histological (FIG. 2J, left […]) regions of interest. […] Immune-competent, syngeneic murine FVB/N and C57BL/6 hosts underwent orthotopic prostatic injections of 5×10^4 cells (MycCaP and TRAMP-C2, respectively), and thereafter received either sham (H2O) or DFP (150 mg/kg, 5 days/week) by oral gavage until average primary tumor burden exceeded 1 cm^3 (determined by MM) in the treated group. […]

Cc1c(O)c(=O)ccn1C [DFP, deferiprone]
smaller tumor volumes by the endpoint of the study [1]: 40% | tumor growth [2]: no growth | histological TAM infiltration profile ([3]; MycCaP tumor at week 3 of treatment, vs untreated group, p<0.05): less TAMs than the untreated group | high-iron(III)+ and CD68+ positive cells (histological analysis) ([3]; MycCaP tumors, 150 mg/kg oral gavage, data not shown): reduced | rates of TAM infiltration ([4]; derived from changes of FeMRI infiltration profiles over time, n=10, p<0.05): reduced | FeMRI measurements of TAMs ([4]; over the full course of treatment): showed reductions
